Source: ChEMBL document CHEMBL1201862, “PubChem BioAssay data set” (2004)
Active and inactive are the calls of the source.

Legend:
[1] = target: Peroxisome proliferator-activated receptor gamma/Nuclear receptor coactivator 3 (Homo sapiens, UniProt P37231); assay type: functional;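 note: agonist potency for raising coactivator recruitment to the receptor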
[2] = target: Peroxisome proliferator-activated receptor gamma/Nuclear receptor coactivator 1 (Homo sapiens, UniProt P37231); assay type: functional;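 note: agonist potency as compounds enhance coactivator SRC-1 recruitment to PPARgamma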
[3] = target: Peroxisome proliferator-activated receptor gamma/Nuclear receptor coactivator 2 (Homo sapiens, UniProt P37231); assay type: functional;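 note: agonist potency for raising coactivator recruitment to the receptor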
cells [4] = assay: cells
Major prion protein = Major prion protein (Homo sapiens, UniProt P04156); assay type: functional, cell-based
[5] = target: Voltage-dependent T-type calcium channel subunit alpha-1H (Homo sapiens, UniProt O95180); assay type: functional;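 note: channel activity triggered by adding a high calcium stimulation buffer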
Beta-galactosidase = Beta-galactosidase (Escherichia coli, UniProt Q8VNN2); assay: Dose response counterscreen for EBI2 assay utilizing the enzyme, b-galactosidase.; assay type: functional
[6] = inhibitors of intracellular T. cruzi replication, confirmation, NIH3T3 host cells, beta-gal luminescence (AID 2044); assay type: functional, cell-based;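 note: intracellular parasites grown in NIH/3T3 mouse fibroblasts as host cells; luminescent beta-galactosidase reporter signal from transgenic T. cruzi replicating inside host cells; inhibitors lower the luminescence signal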
[7] = cytotoxicity toward NIH3T3 fibroblasts, dose response, counter-screen, cell-based, ATP luminescence, mouse fibroblasts (AID 2010); assay type: functional;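 note: cells exposed to compound for about 90 hours before reading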
cells [8] = assay type: functional, cell-based
cells [9] = assay type: functional, cell-based; remark: listed apart in the source
[10] = A cytotoxicity screen of small molecule inhibitors of the PhoP region in Salmonella typhi identified in the primary screen. [Related pubchem assays: 1850, 1864, 1985 ]; assay type: functional
[11] = target: T1, Heat shock factor protein 1 (Mus musculus, UniProt P38532); assay: HSF1 potentiators in luciferase reporter cells, confirmation, cell-based, NIH3T3, luminescence, dose retest (AID 435004); assay type: functional;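 note: stress induced by proteasome inhibitor MG132 added 30 min after compound; luciferase reporter driven by HSF1 response element in NIH3T3 cells; actives raise luminescence as potentiators of the MG132 stress response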
T1 sequence (P38532 whole entry): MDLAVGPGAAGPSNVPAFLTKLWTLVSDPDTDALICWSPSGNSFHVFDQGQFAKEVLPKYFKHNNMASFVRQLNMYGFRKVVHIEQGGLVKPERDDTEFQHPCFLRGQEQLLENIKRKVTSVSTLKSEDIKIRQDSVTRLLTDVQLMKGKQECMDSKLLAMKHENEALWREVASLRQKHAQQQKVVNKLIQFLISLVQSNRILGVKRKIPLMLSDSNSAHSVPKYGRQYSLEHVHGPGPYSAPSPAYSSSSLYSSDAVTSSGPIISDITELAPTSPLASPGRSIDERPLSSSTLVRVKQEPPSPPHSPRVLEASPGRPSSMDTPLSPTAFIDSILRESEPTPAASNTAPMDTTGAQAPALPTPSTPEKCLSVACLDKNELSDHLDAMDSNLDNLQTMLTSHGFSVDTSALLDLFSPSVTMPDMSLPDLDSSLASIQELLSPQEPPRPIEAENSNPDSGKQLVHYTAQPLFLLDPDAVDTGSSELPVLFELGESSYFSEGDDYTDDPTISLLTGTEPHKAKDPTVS

[12] = tested on: Streptococcus sp. 'group A'; assay: growth inhibition of control SK(-) GAS strain, dose response, counter-screen for streptokinase expression inhibitor project, luminescence, kanamycin, BacTiterGlo, confirmation (AID 1900); assay type: functional, organism-based
Streptokinase A = target: T2, Streptokinase A (Streptococcus pyogenes serotype M1, UniProt P10520); assay: S. pyogenes streptokinase expression inhibitors, potency, dose response, plasminogen activation absorbance, OD405 (AID 1914); assay type: functional, Streptococcus pyogenes M1 GAS;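 note: secreted streptokinase activity via plasminogen activation per viability signal from cell pellet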
T2 sequence (P10520 whole entry): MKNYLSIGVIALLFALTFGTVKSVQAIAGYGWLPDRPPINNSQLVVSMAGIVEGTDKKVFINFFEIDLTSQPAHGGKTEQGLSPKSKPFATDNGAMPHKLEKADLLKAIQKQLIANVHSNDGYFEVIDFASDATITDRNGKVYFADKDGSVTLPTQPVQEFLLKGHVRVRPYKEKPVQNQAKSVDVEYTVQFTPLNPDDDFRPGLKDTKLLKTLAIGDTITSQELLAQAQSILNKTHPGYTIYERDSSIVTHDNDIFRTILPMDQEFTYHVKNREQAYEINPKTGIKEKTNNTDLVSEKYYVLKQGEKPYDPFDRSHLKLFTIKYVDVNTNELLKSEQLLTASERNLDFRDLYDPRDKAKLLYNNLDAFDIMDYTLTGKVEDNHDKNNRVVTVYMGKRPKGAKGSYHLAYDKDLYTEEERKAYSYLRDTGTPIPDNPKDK

Streptococcus = assay: Group A Streptococcus viability loss, dose response, counter-screen for streptokinase expression inhibitor project, luminescence, BacTiterGlo (AID 1915); assay type: functional, organism-based;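 note: potency for reduction of bacterial viability or growth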
H9c2 = assay: cells; assay type: functional, cell-based; conditions: Rattus norvegicus, H9c2, Myocardium;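 note: confirmatory concentration-response retest of ultra-high-throughput screening hits for modulation of myocardial damage; cell death induced by hydrogen peroxide oxidative stress; compound pretreatment for 60 min then peroxide exposure for 2 h; potency is for protecting the cells against peroxide damage rather than for killing them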
[13] = intracellular Trypanosoma cruzi inhibitors in host cells – cell-based, plate reader, cherry-pick samples, set 3, dose response (AID 651818); assay type: functional;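 note: compounds incubated with infected cells for about four days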
[14] = target: T3, Histone-lysine N-methyltransferase NSD2 (Homo sapiens, UniProt O96028); assay type: biochemical
T3 sequence (O96028 whole entry): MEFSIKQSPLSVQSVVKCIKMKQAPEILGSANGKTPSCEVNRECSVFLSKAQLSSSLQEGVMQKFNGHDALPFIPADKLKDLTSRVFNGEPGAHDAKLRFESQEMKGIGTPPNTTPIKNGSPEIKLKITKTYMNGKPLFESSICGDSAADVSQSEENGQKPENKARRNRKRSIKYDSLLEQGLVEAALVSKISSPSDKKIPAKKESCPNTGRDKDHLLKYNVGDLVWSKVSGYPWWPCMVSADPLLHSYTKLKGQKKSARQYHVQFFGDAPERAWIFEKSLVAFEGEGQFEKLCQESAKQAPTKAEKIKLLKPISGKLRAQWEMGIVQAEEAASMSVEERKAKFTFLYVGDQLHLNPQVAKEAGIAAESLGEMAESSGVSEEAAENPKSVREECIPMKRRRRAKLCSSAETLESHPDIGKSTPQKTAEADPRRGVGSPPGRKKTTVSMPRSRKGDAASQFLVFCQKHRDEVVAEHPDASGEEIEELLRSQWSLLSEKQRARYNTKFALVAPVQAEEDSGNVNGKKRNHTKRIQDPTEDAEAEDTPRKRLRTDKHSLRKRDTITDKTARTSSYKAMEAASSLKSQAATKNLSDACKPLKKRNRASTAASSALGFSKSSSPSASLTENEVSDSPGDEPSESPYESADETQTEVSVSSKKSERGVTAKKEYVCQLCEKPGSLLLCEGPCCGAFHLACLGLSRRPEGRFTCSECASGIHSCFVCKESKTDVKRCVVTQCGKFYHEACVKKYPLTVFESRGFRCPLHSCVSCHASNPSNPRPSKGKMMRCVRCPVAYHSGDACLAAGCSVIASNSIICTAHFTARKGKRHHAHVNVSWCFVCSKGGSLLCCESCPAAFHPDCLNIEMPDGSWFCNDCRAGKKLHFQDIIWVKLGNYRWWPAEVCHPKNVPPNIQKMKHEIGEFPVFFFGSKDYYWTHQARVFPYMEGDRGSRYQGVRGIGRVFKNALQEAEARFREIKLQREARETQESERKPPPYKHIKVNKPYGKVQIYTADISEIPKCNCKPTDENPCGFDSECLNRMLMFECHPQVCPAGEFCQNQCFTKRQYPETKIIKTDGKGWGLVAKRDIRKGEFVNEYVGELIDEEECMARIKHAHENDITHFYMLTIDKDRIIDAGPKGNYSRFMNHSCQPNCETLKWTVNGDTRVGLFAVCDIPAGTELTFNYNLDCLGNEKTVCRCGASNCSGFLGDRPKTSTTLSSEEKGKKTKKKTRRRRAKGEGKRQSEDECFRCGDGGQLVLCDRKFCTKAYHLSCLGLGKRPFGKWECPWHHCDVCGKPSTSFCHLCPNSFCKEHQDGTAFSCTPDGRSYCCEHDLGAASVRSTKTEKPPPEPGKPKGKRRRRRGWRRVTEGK

[15] = target: T4, Sentrin-specific protease 8 (Homo sapiens, UniProt Q96LD8); assay type: functional
T4 sequence (Q96LD8 whole entry): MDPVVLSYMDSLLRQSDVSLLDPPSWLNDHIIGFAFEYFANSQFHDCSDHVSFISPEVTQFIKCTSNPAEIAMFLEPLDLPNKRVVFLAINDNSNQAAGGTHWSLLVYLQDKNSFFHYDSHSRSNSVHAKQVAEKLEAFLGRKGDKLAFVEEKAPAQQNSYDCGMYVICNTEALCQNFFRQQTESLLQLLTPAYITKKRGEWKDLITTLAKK

[16] = target: T4, Sentrin-specific protease 8; assay type: functional; remark: listed apart in the source

SMILES: Cc1nnc(SCc2ccccc2)n1N
- EC50 [1]: > 79.4 µM (not active)
- EC50 [2]: > 79.4 µM (not active)
- EC50 [3]: > 79.4 µM (not active)

SMILES: CCN(CC)C(=O)CSc1nc(O)c(Cc2ccccc2)c(=O)n1-c1ccccc1
- IC50 (cells [4]): > 138 µM (inactive)
- IC50 (Major prion protein): 14.6 µM (inactive)

SMILES: Cc1cccc(N(CC(=O)N2CCN(c3ccc(F)cc3)CC2)S(C)(=O)=O)c1C
- EC50 [1]: > 79.4 µM (not active)
- EC50 [2]: > 79.4 µM (not active)
- EC50 [3]: > 79.4 µM (not active)

SMILES: CC(=O)Nc1ccc(-c2ccnc(-c3ccc(NC(C)=O)cc3)n2)cc1
- IC50 (cells [4]): > 138 µM (inactive)
- IC50 (Major prion protein): 26.7 µM (inactive)

SMILES: O=C(O)CSc1ncnc2sc3c(c12)CCCC3
- IC50 (cells [4]): > 138 µM (inactive)
- IC50 (Major prion protein): 8.49 µM (active)

SMILES: Cc1ccc(OCC(=O)N2CCN(c3nnc(-c4ccccc4)c4ccccc34)CC2)cc1
- EC50 [5]: 3.8 µM (active)
- IC50 (Beta-galactosidase): > 80 µM (inactive)
- EC50 [6]: 1.92 µM (active)
- EC50 [7]: > 60 µM (not active)

SMILES: Oc1nc(Nc2ccccc2)nc(N2CCCCC2)n1
- IC50 (cells [8]): > 29.9 µM (inactive)
- EC50 (cells [9]): > 29.9 µM (inactive)

SMILES: COc1ccc(NC(=S)N2CCc3ccccc3C2)cc1OC
- IC50 (cells [8]): > 29.9 µM (inactive)
- EC50 (cells [9]): > 29.9 µM (inactive)

SMILES: CC1C(Br)C(=O)NC(=O)N1Cc1ccccc1 (configuration not stated)
- EC50 [1]: > 79.4 µM (not active)
- EC50 [2]: > 79.4 µM (not active)
- EC50 [3]: > 79.4 µM (not active)

SMILES: CCS(=O)(=O)N1CCN(C2CCC(c3ccccc3)CC2)CC1 (configuration not stated)
- EC50 [1]: > 79.4 µM (not active)
- EC50 [2]: > 79.4 µM (not active)
- EC50 [3]: > 79.4 µM (not active)
- EC50 [10]: > 50 µM (active)

SMILES: Cc1cc(OCc2ccccc2)ccc1C(=O)C1=C(O)C(=O)N(Cc2cccnc2)C1c1ccncc1 (configuration not stated)
- IC50 (cells [4]): > 138 µM (inactive)
- IC50 (Major prion protein): 12.5 µM (inactive)

SMILES: CN1CCN(C(=O)/C=C\c2ccc(Cl)cc2)CC1
- IC50 (Beta-galactosidase): > 80 µM (inactive)

SMILES: COc1cccc(NC(=S)NC(=O)c2c(Cl)c(C)nn2C)c1
- EC50 [1]: > 79.4 µM (not active)
- EC50 [2]: > 79.4 µM (not active)
- EC50 [3]: > 79.4 µM (not active)
- EC50 [11]: 63.7 µM (active)

SMILES: CC(=O)N1CCN(c2ccc(NC(=O)/C=C/c3ccccc3)cc2)CC1
- EC50 [1]: > 79.4 µM (not active)
- EC50 [2]: > 79.4 µM (not active)
- EC50 [3]: > 79.4 µM (not active)

SMILES: CSc1cc(-c2ccc(Cl)cc2)n(Cc2ccccc2)c(=O)c1C#N
- EC50 [1]: 80.7 µM (not active)
- EC50 [2]: 44.7 µM (not active)
- EC50 [3]: 41.4 µM (not active)

SMILES: O=C(Nc1ccc(Oc2ccccc2)nc1)C1CCCCN1Cc1cccc(O)c1 (configuration not stated)
- IC50 (Beta-galactosidase): > 80 µM (inactive)

SMILES: COc1ccccc1N1CCN(C(=O)/C=C/c2ccc(C)cc2)CC1
- IC50 (Beta-galactosidase): > 80 µM (inactive)
- EC50 [12]: > 150 µM (not active)
- EC50 (Streptokinase A): 107 µM (active)
- EC50 (Streptococcus): > 150 µM (not active)

SMILES: CCc1cc2cccc(C)c2nc1SCC(=O)N1CCN(C(=O)c2ccco2)CC1
- IC50 (cells [4]): 54.9 µM (inactive)
- IC50 (Major prion protein): 10.7 µM (inactive)
- IC50 (H9c2): > 79 µM (inactive)

SMILES: O=C1CCN(Cc2ccccc2)C=C1c1ccc2ccccc2c1
- IC50 (Beta-galactosidase): > 80 µM (inactive)

SMILES: Cc1ccc(C(=O)NNC(=O)CSc2nnc(-c3ccccc3)n2Cc2ccccc2)cc1
- IC50 (Beta-galactosidase): > 80 µM (inactive)

SMILES: O=C(N/N=C/c1cc(Br)cc(Br)c1O)c1ccccc1O
- AC50 [13]: 1.85 µM (active)

SMILES: C[C@@H]1CCCCO[C@H](CN(C)S(=O)(=O)c2ccc(Cl)cc2)[C@@H](C)CN([C@H](C)CO)C(=O)c2cc(NC(=O)Nc3ccc(C(F)(F)F)cc3)ccc2O1
- AC50 [13]: 3 µM (active)

SMILES: Cc1ccc(S(=O)(=O)Nc2ccc3c(c2)CC(=O)N([C@@H](C)CO)C[C@@H](C)[C@@H](CN(C)S(=O)(=O)c2ccc(C)cc2)O3)cc1
- AC50 [13]: 6.15 µM (active)

SMILES: C[C@H](CO)N1C[C@H](C)[C@@H](CN(C)Cc2ccc(C(=O)Nc3ccccc3N)cc2)Oc2c(NC(=O)Nc3ccccc3)cccc2C1=O
- AC50 [13]: 1.61 µM (active)

SMILES: C[C@H]1CN([C@@H](C)CO)C(=O)Cc2cc(NC(=O)CCC(F)(F)F)ccc2O[C@H]1CN(C)Cc1ccc(C(=O)Nc2ccccc2N)cc1
- AC50 [13]: 5.91 µM (active)

SMILES: C[C@@H]1CN([C@@H](C)CO)C(=O)c2cccc(NC(=O)Nc3ccc(F)cc3)c2O[C@H]1CN(C)Cc1ccc(C(=O)Nc2ccccc2N)cc1
- AC50 [13]: 0.46 µM (active)

SMILES: C[C@H]1CN([C@@H](C)CO)C(=O)c2cccc(NC(=O)Nc3ccc(F)cc3)c2O[C@H]1CN(C)Cc1ccc(C(=O)Nc2ccccc2N)cc1
- AC50 [13]: 2.74 µM (active)

SMILES: C[C@H]1COc2c3ccc(I)cc3nn21
- IC50 (cells [4]): > 138 µM (inactive)
- IC50 (Major prion protein): 3.61 µM (active)

SMILES: COc1cc(OC)c([N+](=O)[O-])cc1/C=N/NC(=O)c1ccncc1
- AC50 [14]: > 20 µM (inactive)
- IC50 [15]: 12.3 µM (active)
- IC50 [16]: 9.81 µM (active)
